Test results: the supplement of paper PMC8617591

Key:
[1] = test system: Mycobacterium tuberculosis Erdman (autoluminescent); experiment: GRinf, maximum normalised growth rate inhibition (three-drug combination) (unitless (-1 to 1)); higher = less effect (negative = killing)
Method: (§1)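 DiaMOND equipotent three-drug combination dose responses (10 doses, 1.5- or 2-fold spacing, centred on IC90) against autoluminescent M. tuberculosis Erdman in 8 in vitro models. Read-out is OD600, or luminescence for the intracellular and dormancy models, normalised to untreated wells. Hill-fit Einf, AUC25 and GRinf are potency metrics; FIC50 and FIC90 are total Loewe fractional inhibitory concentrations as log2 (negative = synergy).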

[2] = test system: Mycobacterium tuberculosis Erdman (autoluminescent); experiment: total FIC50 (Loewe) at 50% inhibition, three-drug combination (log2); higher = more antagonistic
Method: as §1

[3] = test system: Mycobacterium tuberculosis Erdman (autoluminescent); experiment: total FIC90 (Loewe) at 90% inhibition, three-drug combination (log2); higher = more antagonistic
Method: as §1

[4] = test system: Mycobacterium tuberculosis Erdman (autoluminescent); experiment: Einf, fitted maximum growth inhibition of three-drug combination (fraction); higher = stronger maximal inhibition
Method: as §1

[5] = test system: Mycobacterium tuberculosis Erdman (autoluminescent); experiment: AUC25, normalised area under dose response up to IC25 (three-drug combination) (fraction (0-1)); higher = more potent at low dose
Method: as §1

CC(=O)NC[C@H]1CN(c2ccc(N3CCOCC3)c(F)c2)C(=O)O1 [linezolid] + COc1c(N2C[C@@H]3CCCN[C@@H]3C2)c(F)cc2c(=O)c(C(=O)O)cn(C3CC3)c12 [moxifloxacin] + NC(=O)c1cnccn1 [pyrazinamide]
Details	AUC25, [5]	Einf, [4]	GRinf, [1]	total FIC50, [2]	total FIC90, [3]
in vitro model: acidic pH 5.7, time point: constant (~7 days, model-specific)	0.0593	0.734	-0.345	-0.252	–
in vitro model: acidic pH 5.7, time point: terminal (~4-5 doublings, model-specific)	0.0649	0.955	-0.38	1.52	-0.8
in vitro model: intracellular J774, time point: constant = terminal	–	0.939	-0.17	–	0.559

Details	AUC25, [5]	Einf, [4]	GRinf, [1]	total FIC50, [2]	total FIC90, [3]
in vitro model: butyrate, time point: constant (~7 days, model-specific)	0.108	0.891	0.0582	0.00706	2.34
in vitro model: butyrate, time point: terminal (~4-5 doublings, model-specific)	0.0904	0.952	0.0307	0.0931	0.745
in vitro model: cholesterol 0.05 mM, time point: constant (~7 days, model-specific)	0.145	0.704	-0.234	–	–
in vitro model: cholesterol 0.05 mM, time point: terminal (~4-5 doublings, model-specific)	0.147	0.932	-0.426	0.356	–
in vitro model: cholesterol-high 0.2 mM, time point: constant (~7 days, model-specific)	0.106	0.923	-0.819	0.486	–
in vitro model: cholesterol-high 0.2 mM, time point: terminal (~4-5 doublings, model-specific)	0.115	1	-1	0.334	0.717
in vitro model: dormancy (butyrate + nitrate, low O2), time point: constant (~7 days, model-specific)	0.0721	0.855	0.269	0.651	0.461
in vitro model: dormancy (butyrate + nitrate, low O2), time point: terminal (~4-5 doublings, model-specific)	0.0321	0.973	-0.0525	0.786	0.354
in vitro model: standard 7H9 glycerol, time point: constant = terminal	0.0843	0.962	-0.271	–	–
in vitro model: valerate, time point: constant (~7 days, model-specific)	0.0976	0.87	0.12	-0.0785	–
in vitro model: valerate, time point: terminal (~4-5 doublings, model-specific)	0.0603	0.921	0.0594	0.266	0.56

COc1nc2ccc(Br)cc2cc1[C@@H](c1ccccc1)[C@@](O)(CCN(C)C)c1cccc2ccccc12 [bedaquiline] + O=[N+]([O-])c1cn2c(n1)OC[C@@H](OCc1ccc(OC(F)(F)F)cc1)C2 [pretomanid] + CO[C@H]1/C=C/O[C@@]2(C)Oc3c(C)c(O)c4c(O)c(c(/C=N/N5CCN(C6CCCC6)CC5)c(O)c4c3C2=O)NC(=O)/C(C)=C\C=C\[C@H](C)[C@H](O)[C@@H](C)[C@@H](O)[C@@H](C)[C@H](OC(C)=O)[C@@H]1C [rifapentine]
Details	AUC25, [5]	Einf, [4]	GRinf, [1]	total FIC50, [2]	total FIC90, [3]
in vitro model: acidic pH 5.7, time point: constant (~7 days, model-specific)	0.116	0.943	-0.512	0.516	–
in vitro model: acidic pH 5.7, time point: terminal (~4-5 doublings, model-specific)	0.0913	0.987	-0.4	0.436	0.698
in vitro model: intracellular J774, time point: constant = terminal	–	0.985	-0.531	–	0.0139

Details	AUC25, [5]	Einf, [4]	GRinf, [1]	total FIC50, [2]	total FIC90, [3]
in vitro model: butyrate, time point: constant (~7 days, model-specific)	0.088	0.933	-0.0563	0.655	0.181
in vitro model: butyrate, time point: terminal (~4-5 doublings, model-specific)	0.0789	0.971	-0.0507	0.541	0.744
in vitro model: cholesterol 0.05 mM, time point: constant (~7 days, model-specific)	0.106	0.751	-0.236	0.454	–
in vitro model: cholesterol 0.05 mM, time point: terminal (~4-5 doublings, model-specific)	0.0678	0.929	-0.207	0.994	0.888
in vitro model: cholesterol-high 0.2 mM, time point: constant (~7 days, model-specific)	0.0733	0.918	-0.21	1.12	1.36
in vitro model: cholesterol-high 0.2 mM, time point: terminal (~4-5 doublings, model-specific)	0.0496	0.999	-0.642	1.19	0.947
in vitro model: dormancy (butyrate + nitrate, low O2), time point: constant (~7 days, model-specific)	0.0511	0.899	0.22	0.0544	-0.43
in vitro model: dormancy (butyrate + nitrate, low O2), time point: terminal (~4-5 doublings, model-specific)	0.032	0.983	-0.177	0.0788	-0.459
in vitro model: standard 7H9 glycerol, time point: constant = terminal	0.072	0.922	-0.0207	-0.0622	0.308
in vitro model: valerate, time point: constant (~7 days, model-specific)	0.0905	0.904	-0.217	1.07	–
in vitro model: valerate, time point: terminal (~4-5 doublings, model-specific)	0.0466	0.947	-0.0362	1.15	0.748

COc1nc2ccc(Br)cc2cc1[C@@H](c1ccccc1)[C@@](O)(CCN(C)C)c1cccc2ccccc12 [bedaquiline] + CC(C)/N=c1\cc2n(-c3ccc(Cl)cc3)c3ccccc3nc-2cc1Nc1ccc(Cl)cc1 [clofazimine] + CO[C@H]1/C=C/O[C@@]2(C)Oc3c(C)c(O)c4c(O)c(c(/C=N/N5CCN(C6CCCC6)CC5)c(O)c4c3C2=O)NC(=O)/C(C)=C\C=C\[C@H](C)[C@H](O)[C@@H](C)[C@@H](O)[C@@H](C)[C@H](OC(C)=O)[C@@H]1C [rifapentine]
Details	AUC25, [5]	Einf, [4]	GRinf, [1]	total FIC50, [2]	total FIC90, [3]
in vitro model: acidic pH 5.7, time point: constant (~7 days, model-specific)	0.0909	0.924	-0.309	0.793	–
in vitro model: acidic pH 5.7, time point: terminal (~4-5 doublings, model-specific)	0.0906	0.997	-0.284	0.66	0.55
in vitro model: intracellular J774, time point: constant = terminal	–	0.951	-0.199	–	-0.0198

Details	AUC25, [5]	Einf, [4]	GRinf, [1]	total FIC50, [2]	total FIC90, [3]
in vitro model: butyrate, time point: constant (~7 days, model-specific)	0.0667	0.948	-0.116	0.174	-0.813
in vitro model: butyrate, time point: terminal (~4-5 doublings, model-specific)	0.0586	0.983	-0.124	0.264	-0.221
in vitro model: cholesterol 0.05 mM, time point: constant (~7 days, model-specific)	0.0889	0.716	-0.179	-0.467	–
in vitro model: cholesterol 0.05 mM, time point: terminal (~4-5 doublings, model-specific)	0.085	0.926	-0.231	0.869	-0.165
in vitro model: cholesterol-high 0.2 mM, time point: constant (~7 days, model-specific)	0.0509	0.965	-0.378	-0.0878	-0.883
in vitro model: cholesterol-high 0.2 mM, time point: terminal (~4-5 doublings, model-specific)	0.0654	1	-0.595	0.507	-0.0793
in vitro model: dormancy (butyrate + nitrate, low O2), time point: constant (~7 days, model-specific)	0.0857	0.937	0.218	-0.0609	-0.282
in vitro model: dormancy (butyrate + nitrate, low O2), time point: terminal (~4-5 doublings, model-specific)	0.0766	0.997	-0.206	-0.242	-0.206
in vitro model: standard 7H9 glycerol, time point: constant = terminal	0.079	0.959	-0.0819	-0.0863	-0.842
in vitro model: valerate, time point: constant (~7 days, model-specific)	0.0956	0.895	-0.0953	0.292	–
in vitro model: valerate, time point: terminal (~4-5 doublings, model-specific)	0.0686	0.95	-0.0333	0.461	0.966

O=[N+]([O-])c1cn2c(n1)OC[C@@H](OCc1ccc(OC(F)(F)F)cc1)C2 [pretomanid] + NC(=O)c1cnccn1 [pyrazinamide] + CO[C@H]1/C=C/O[C@@]2(C)Oc3c(C)c(O)c4c(O)c(c(/C=N/N5CCN(C)CC5)c(O)c4c3C2=O)NC(=O)/C(C)=C\C=C\[C@H](C)[C@H](O)[C@@H](C)[C@@H](O)[C@@H](C)[C@H](OC(C)=O)[C@@H]1C [rifampicin]
Details	AUC25, [5]	Einf, [4]	GRinf, [1]	total FIC50, [2]	total FIC90, [3]
in vitro model: acidic pH 5.7, time point: constant (~7 days, model-specific)	0.0685	0.907	-0.202	0.112	–
in vitro model: acidic pH 5.7, time point: terminal (~4-5 doublings, model-specific)	0.0533	0.988	-0.228	0.156	-0.637
in vitro model: intracellular J774, time point: constant = terminal	–	0.981	-0.237	–	-0.273

Details	AUC25, [5]	Einf, [4]	GRinf, [1]	total FIC50, [2]	total FIC90, [3]
in vitro model: butyrate, time point: constant (~7 days, model-specific)	0.1	0.875	0.153	-0.0322	–
in vitro model: butyrate, time point: terminal (~4-5 doublings, model-specific)	0.098	0.943	0.0978	-0.158	0.429
in vitro model: cholesterol 0.05 mM, time point: constant (~7 days, model-specific)	0.109	0.694	-0.0437	–	–
in vitro model: cholesterol 0.05 mM, time point: terminal (~4-5 doublings, model-specific)	0.0891	0.895	-0.0945	1.25	–
in vitro model: cholesterol-high 0.2 mM, time point: constant (~7 days, model-specific)	0.071	0.867	-0.142	0.75	–
in vitro model: cholesterol-high 0.2 mM, time point: terminal (~4-5 doublings, model-specific)	0.0574	0.997	-0.5	1.36	0.673
in vitro model: dormancy (butyrate + nitrate, low O2), time point: constant (~7 days, model-specific)	0.0775	0.863	0.209	-0.0806	-0.525
in vitro model: dormancy (butyrate + nitrate, low O2), time point: terminal (~4-5 doublings, model-specific)	0.0697	0.983	-0.11	-0.485	-0.0518
in vitro model: standard 7H9 glycerol, time point: constant = terminal	0.0634	0.897	0.147	-0.426	–
in vitro model: valerate, time point: constant (~7 days, model-specific)	0.0616	0.854	0.084	0.491	–
in vitro model: valerate, time point: terminal (~4-5 doublings, model-specific)	0.0376	0.933	0.0442	0.477	-0.0725
